For 33 compounds, EC and Activity results are on record in ChEMBL document CHEMBL3112491, “3-(5-)-Amino-o-diarylisoxazoles: regioselective synthesis and antitubulin activity” (2014).

Assay [1] has as its system Paracentrotus lividus. Briefly: Microtubule destabilizing activity in sea urchin free-swimming blastula assessed as embryo spinning treated at 9 to 10 hrs post-fertilization measured after 0.15 to 15 hrs. It is filed as functional.
Assay [2] has as its system Paracentrotus lividus. Nature of the assay: Antimitotic activity in sea urchin fertilized egg assessed as cleavage arrest treated at 8 to 20 mins post-fertilization measured at 2.5 to 5.5 hrs post-fertilization. The format is functional.
Assay [3] relates to Paracentrotus lividus. Nature of the assay: Antimitotic activity in sea urchin fertilized egg assessed as cleavage alteration treated at 8 to 20 mins post-fertilization measured at 2.5 to 5.5 hrs post-fertilization. It is filed as functional.
Assay [4] relates to Paracentrotus lividus. Nature of the assay: Microtubule destabilizing activity in sea urchin free-swimming blastula assessed as embryo spinning up to 4 uM treated at 9 to 10 hrs post-fertilization measured after 0.15 to 15 hrs. It is filed as functional, organism-based.

The source made the active and inactive calls. The rule behind the calls is not given here. Bounds are passed on as bounds.

Regarding `COc1ccc(-c2onc(NC(C)=O)c2-c2ccc(Cl)cc2)cc1`, the EC with Paracentrotus lividus [1], in the assay with Paracentrotus lividus [2] and with Paracentrotus lividus [3] was more than 4 µM each time.

Turning to `COc1ccc(-c2c(-c3cc(OC)c(OC)c(OC)c3)noc2N(C(C)=O)C(C)=O)cc1`, the values for the EC in the assay with Paracentrotus lividus [1], in the assay on Paracentrotus lividus [2] and in the assay with Paracentrotus lividus [3] were 1 µM, 0.2 µM and 0.05 µM, respectively.

On to `COc1ccc(-c2c(-c3cc(OC)c4c(c3)OCO4)noc2N(C(C)=O)C(C)=O)cc1`, for which the EC in the assay on Paracentrotus lividus [1] stood at 0.5 µM; with Paracentrotus lividus [2] it was 0.1 µM; in the assay with Paracentrotus lividus [3], 0.02 µM.

As to `COc1ccc(-c2nc(CCc3cc(OC)c(OC)c(OC)c3)no2)cc1`, the result in the assay with Paracentrotus lividus [4] was inactive.

Consider `COc1ccc(-c2noc(N)c2-c2cc3c(c(OC)c2OC)OCO3)cc1`, for which the EC in the assay with Paracentrotus lividus [1], in the assay with Paracentrotus lividus [2] and in the assay on Paracentrotus lividus [3] was more than 4 µM in each case.

Turning to `COc1ccc(-c2c(-c3ccccc3)noc2N)cc1OC`, the results for the EC in the assay with Paracentrotus lividus [1], in the assay on Paracentrotus lividus [2] and in the assay on Paracentrotus lividus [3] were 10 µM, 10 µM and 0.5 µM, respectively.

For the compound `COc1ccc(Cc2noc(-c3cc(OC)c(OC)c(OC)c3)n2)cc1`, the result in the assay with Paracentrotus lividus [4] was inactive.

`COc1ccc(-c2c(NC(C)=O)noc2-c2cc(OC)c3c(c2)OCCO3)cc1`: the EC in the assay with Paracentrotus lividus [1], with Paracentrotus lividus [2] and with Paracentrotus lividus [3] was more than 4 µM in each case.

With `COc1ccc(-c2noc(N)c2-c2ccc(Cl)cc2)cc1`, the EC in the assay with Paracentrotus lividus [1], in the assay on Paracentrotus lividus [2] and with Paracentrotus lividus [3] was more than 4 µM in each case.

For `COc1ccc(-c2onc(N)c2-c2cc(OC)c3c(c2OC)OCO3)cc1`, the EC in the assay on Paracentrotus lividus [1], with Paracentrotus lividus [2] and in the assay with Paracentrotus lividus [3] was more than 4 µM in each case.

As to `COc1ccc(Cc2noc(-c3cccc(OC)c3)n2)cc1`, the result with Paracentrotus lividus [4] was inactive.

Turning to `COc1ccc(Cc2noc(-c3cc(OC)c4c(c3OC)OCO4)n2)cc1`, the outcome with Paracentrotus lividus [4] was inactive.

For the compound `COc1ccc(-c2onc(N)c2-c2cc3c(c(OC)c2OC)OCO3)cc1`, the values for the EC in the assay with Paracentrotus lividus [1], in the assay with Paracentrotus lividus [2] and in the assay on Paracentrotus lividus [3] were more than 4 µM, more than 4 µM and 4 µM, respectively.

With `COc1ccc(Cc2noc(-c3cc(OC)c4c(c3)OCO4)n2)cc1`, the outcome with Paracentrotus lividus [4] was inactive.

On to `COc1ccc(-c2c(-c3cc(OC)c4c(c3OC)OCO4)noc2N)cc1`, for which the EC is more than 5 µM in the assay on Paracentrotus lividus [1], more than 5 µM with Paracentrotus lividus [2] and 2 µM with Paracentrotus lividus [3].

For the compound `COc1ccc(-c2c(-c3cc(OC)c4c(c3OC)OCO4)noc2N(C(C)=O)C(C)=O)cc1`, the results for the EC in the assay with Paracentrotus lividus [1], in the assay with Paracentrotus lividus [2] and in the assay on Paracentrotus lividus [3] were 5 µM, 2 µM and 0.5 µM, respectively.

Regarding `COc1ccc(-c2c(NC(C)=O)noc2-c2cc(OC)c3c(c2OC)OCO3)cc1`, the EC in the assay with Paracentrotus lividus [1], with Paracentrotus lividus [2] and in the assay with Paracentrotus lividus [3] was more than 4 µM in each case.

Regarding `COc1ccc(-c2c(N)noc2-c2cc(OC)c3c(c2)OCCO3)cc1`, the values for the EC in the assay with Paracentrotus lividus [1], with Paracentrotus lividus [2] and in the assay with Paracentrotus lividus [3] were 0.5 µM, 0.02 µM and 0.005 µM, respectively.

In the case of `COc1ccc(Cc2noc(-c3ccc([N+](=O)[O-])cc3)n2)cc1`, the outcome with Paracentrotus lividus [4] was inactive.

For `COc1ccc(-c2noc(N)c2-c2cc(OC)c(OC)c(OC)c2)cc1`, the EC came out at 0.1 µM with Paracentrotus lividus [1], 0.01 µM in the assay with Paracentrotus lividus [2] and 0.002 µM in the assay with Paracentrotus lividus [3].

For the compound `COc1ccc(-c2onc(N)c2-c2cc(OC)c(OC)c(OC)c2)cc1`, the results for the EC with Paracentrotus lividus [1], in the assay with Paracentrotus lividus [2] and in the assay with Paracentrotus lividus [3] were 0.2 µM, 0.02 µM and 0.004 µM, respectively.

`COc1ccc(-c2c(NC(C)=O)noc2-c2cc(OC)c(OC)c(OC)c2)cc1`: the EC with Paracentrotus lividus [1], in the assay with Paracentrotus lividus [2] and in the assay on Paracentrotus lividus [3] was more than 4 µM in each case.

For the compound `COc1ccc(-c2onc(NC(C)=O)c2-c2cc(OC)c(OC)c(OC)c2)cc1`, the EC in the assay on Paracentrotus lividus [1], in the assay with Paracentrotus lividus [2] and with Paracentrotus lividus [3] was more than 4 µM in each case.

Regarding `COc1ccc(-c2c(NC(C)=O)noc2-c2cc(OC)c3c(c2)OCO3)cc1`, the EC with Paracentrotus lividus [1], in the assay on Paracentrotus lividus [2] and in the assay on Paracentrotus lividus [3] was more than 4 µM each time.

Turning to `COc1ccc(-c2c(NC(C)=O)noc2-c2cccc(OC)c2)cc1`, the EC in the assay on Paracentrotus lividus [1], in the assay with Paracentrotus lividus [2] and in the assay with Paracentrotus lividus [3] was more than 4 µM in each case.

Turning to `COc1ccc(-c2c(NC(C)=O)noc2-c2cc3c(c(OC)c2OC)OCO3)cc1`, the EC in the assay on Paracentrotus lividus [1], with Paracentrotus lividus [2] and in the assay on Paracentrotus lividus [3] was more than 4 µM throughout.

For `COc1ccc(CCc2noc(-c3cc(OC)c4c(c3)OCCO4)n2)cc1`, the outcome in the assay with Paracentrotus lividus [4] was inactive.

In the case of `COc1ccc(-c2onc(NC(C)=O)c2-c2ccc(OC)cc2)cc1`, the EC in the assay with Paracentrotus lividus [1], in the assay on Paracentrotus lividus [2] and with Paracentrotus lividus [3] was more than 4 µM each time.

As to `COc1ccc(-c2onc(NC(C)=O)c2-c2ccc([N+](=O)[O-])cc2)cc1`, the EC in the assay on Paracentrotus lividus [1], in the assay on Paracentrotus lividus [2] and with Paracentrotus lividus [3] was more than 4 µM in each case.

As to `COc1ccc(-c2noc(N)c2-c2cc(OC)c3c(c2OC)OCO3)cc1`, the values for the EC with Paracentrotus lividus [1], with Paracentrotus lividus [2] and with Paracentrotus lividus [3] were more than 4 µM, more than 4 µM and 4 µM, respectively.

Take `COc1ccc(C(=O)Nc2noc(-c3ccc(OC)cc3)c2-c2cc(OC)c(OC)c(OC)c2)cc1`: the EC in the assay with Paracentrotus lividus [1], in the assay on Paracentrotus lividus [2] and with Paracentrotus lividus [3] was more than 4 µM throughout.

With `COc1ccc(Cc2noc(-c3cc4c(c(OC)c3OC)OCO4)n2)cc1`, the outcome with Paracentrotus lividus [4] was inactive.

For the compound `COc1ccc(/C=C\c2cc(OC)c3c(c2)OCO3)cc1O` [Combretastatin A-2], the results for the EC in the assay on Paracentrotus lividus [1], with Paracentrotus lividus [2] and in the assay with Paracentrotus lividus [3] were 0.05 µM, 0.01 µM and 0.002 µM, respectively.
